# Tests used:
# [1] = test system: Fischer 344 ovariectomized rats; experiment: Midshaft femur and tibia cortical thickness by microCT in sham and ovariectomized rats; type: in vivo; conditions: target dose 30 mg/kg in diet, five weeks, ANOVA p=0.05 for treatment
# Source text: The pharmacology of 2-((5-chloro-6-methylthieno[2,3-d]pyrimidin-4-yl)thio)acetic acid was studied in Fischer 344 ovariectomized rats. The rats underwent ovariectomies or sham surgery at 43 or 46 weeks of age, and treatment with the compound started at 37 or 40 weeks thereafter, at 83 weeks of age.
# Four treatment groups were used: sham-surgery given control diet (N=14); sham-surgery given compound (N=12); OVX-surgery given control diet (N=14); and OVX-surgery given compound (N=12). The compound was dosed by incorporating it into the rats' diet: 0.46 grams of compound per kg of diet. The target dose was 30 mg/kg. Dosing occurred for five weeks.
# Bone mass and architecture was determined by microCT, using a Scanco μCT40. […] The difference between the cortical bone thicknesses of the sham control and OVX control was −13%. Two-factor ANOVA values were: p<0.001 for OVX surgery; p=0.05 for treatment; and p=0.65 for interaction.
# Two-factor ANOVA values were: p=0.79 for OVX surgery; p=0.05 for treatment; and p=0.52 for interaction.
# [2] = molecular target: T1, human notum pectinacetyltransferase (Homo sapiens, UniProt Q6P988); experiment: Binding assay (OPTS esterase substrate, fluorimetric); type: biochemical; conditions: OPTS substrate 5 μM
# T1 construct: made in house; conditioned medium used
# T1 sequence (Q6P988 20-496): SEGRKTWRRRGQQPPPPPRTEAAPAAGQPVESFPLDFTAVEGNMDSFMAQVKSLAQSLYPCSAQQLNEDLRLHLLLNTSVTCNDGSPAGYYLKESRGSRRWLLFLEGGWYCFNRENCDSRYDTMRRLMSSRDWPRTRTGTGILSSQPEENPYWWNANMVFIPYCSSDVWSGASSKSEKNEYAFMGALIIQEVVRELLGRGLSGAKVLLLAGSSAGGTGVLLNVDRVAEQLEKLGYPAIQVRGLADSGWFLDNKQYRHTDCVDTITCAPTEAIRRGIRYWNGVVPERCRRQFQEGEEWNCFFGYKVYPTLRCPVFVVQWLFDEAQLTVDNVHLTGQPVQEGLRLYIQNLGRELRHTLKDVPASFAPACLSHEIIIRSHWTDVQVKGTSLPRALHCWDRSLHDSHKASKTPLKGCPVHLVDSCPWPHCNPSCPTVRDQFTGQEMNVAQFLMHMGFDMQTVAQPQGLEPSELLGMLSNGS
# Procedure: Plasmid containing human notum pectinacetyltransferase in pcDNA3.1(+) vector was transfected into HEK293 cells and clones were selecting by growing in presence of 400 ug/mL of G418. Condition media from these cells was used for the assay.
# [3] = molecular target: T1, human notum pectinacetyltransferase; experiment: Reporter assay (CellSensor LEF/TCF-bla FreeStyle 293F cells, Wnt3a and notum conditioned media); type: cell-based
# Procedure: Plasmid containing human notum pectinacetyltransferase in pcDNA3.1(+) vector was transfected into HEK293 cells and clones were selecting by growing in presence of 400 ug/mL of G418. […] L cells overexpressing and secreting Wnt3a into the conditioned media were purchased from ATCC.
# The assay protocol was as follows. […] The cell growth medium consisted of DMEM with 10% Dialyzed FBS, 5 μg/ml Blasticidin (Invitrogen, R210-01), 0.1 mM NEAA, 25 mM HEPES and 1×GPS. Cells were then trypsinized by first rinsing with PBS, followed by addition of 5 mL of trypsin and incubation of plates at room temperature for two minutes. A total of 10 mL of assay media (Opti-MEM, plus 0.5% dialyzed FBS, 0.1 mM NEAA, 1 mM sodium pyruvate, 10 mM HEPES, 1×GPS) was then added per 15 cm plate. Cells were counted and suspended at 0.75 million cells per mL. […] After incubation of cells at 37° C. for 3 hours, 10 μL of 30 mM LiCl in assay medium was added per well, followed by incubation at 37° C. for another 3 hours. […] Ten μL of the Wnt3a/notum pentinacetyltransferase mixture was then transferred from Greiner plates to each well of the 384-well plates containing the CellSensor cells. After incubation of cells overnight at 37° C., reactions were developed by addition of […] of 1×CCF4 (Invitrogen, Catalogue number K1085) to each well, covering the entire 384-well plate, and gentle rocking in the dark at room temperature for 3 hours.
# [4] = test system: F1 male hybrid (129×C57) mice; experiment: Midshaft femur cortical thickness by microCT in treated mice; type: in vivo; conditions: for increase in cortical bone thickness (midshaft femur) compared to control: starting at 8.7 weeks of age
# Procedure: The compound was administered in the animals' diet. Four groups of mice were used: control (N=12); 25 mg/kg compound (N=9); 83 mg/kg compound (N=9); and an additional group wherein Li2CO3 was administered in the diet (0.1%) (N=9).
# Midshaft femur cortical thickness was measured using a Scanco μCT40. […] For the Li2CO3 group, a decrease in cortical bone thickness of 2% (p=0.90) was observed. […]
# Midshaft femur cortical thickness was measured by microCT (Scanco μCT40). […]
structure (smiles),measurement,setting,value
"Cc1sc2ncnc(SCC(=O)O)c2c1Cl [2-((5-chloro-6-methylthieno[2,3-d]pyrimidin-4-yl)thio)acetic acid]",increase in midshaft femur cortical bone thickness,[1]; intact (sham) rats,3%
same,increase in midshaft tibia cortical thickness,[1]; intact (sham) rats,2%
same,increase in midshaft femur cortical bone thickness,[1]; ovariectomized rats,5%
same,increase in midshaft tibia cortical thickness,[1]; ovariectomized rats,5%
same,IC50,[2],< 0.025 µM
same,EC50,[3],< 1 µM
"Cc1c(Cl)sc2c(SCC(=O)O)ncnc12 [2-((6-chloro-7-methylthieno[3,2-d]pyrimidin-4-yl)thio)acetic acid]",IC50,[2],< 0.025 µM
same,increase in midshaft femur cortical bone thickness compared to control,"[4]; first experiment, 10 mg/kg daily oral gavage, 25 days, starting at 54 weeks of age, p=0.06",6%
same,increase in midshaft femur cortical bone thickness compared to control,"[4]; first experiment, 100 mg/kg daily oral gavage, 25 days, starting at 54 weeks of age, p=0.03",7%
same,increase in midshaft femur cortical bone thickness compared to control,"[4]; second experiment, 34 mg/kg in diet, 18 days, starting at 8.1 weeks of age, p<0.01",10%
same,increase in midshaft femur cortical bone thickness compared to control,"[4]; second experiment, 34 mg/kg in diet, seven days, starting at 8.1 weeks of age, p=0.13",6%
same,EC50,[3],< 1 µM
"CC(C)c1sc2ncnc(SCC(=O)O)c2c1Cl [2-((5-chloro-6-isopropylthieno[2,3-d]pyrimidin-4-yl)thio)acetic acid]",IC50,[2],< 0.025 µM
same,increase in cortical bone thickness (midshaft femur) compared to control,"[4]; 5 mg/kg twice daily oral gavage, 25 days, p=0.002",6%
same,increase in cortical bone thickness (midshaft femur) compared to control,"[4]; 10 mg/kg twice daily oral gavage, 25 days, p=0.007",5%
same,increase in cortical bone thickness (midshaft femur) compared to control,"[4]; 15 mg/kg twice daily oral gavage, 25 days, p=0.001",6%
same,EC50,[3],< 1 µM
